Experimental data from patent US10398661B2, “Methods for classifying a cancer as susceptible to TMEPAI-directed therapies and treating such cancers” (THE BOARD OF REGENTS OF THE UNIVERSITY OF TEXAS SYSTEM, priority 2013, dated 2019).

Tests used:
TMEPAI [1] = experiment: TMEPAI mRNA (QPCR) and protein expression in MDA-MB-231 cells with TGF-β; format: cell-based, human
Excerpt: (§1) FIGS. 1A-B: Relative expression of TMEPAI mRNA and protein in normal and cancer cells. FIG. 1A. Effect of TGF-β on TMEPAI mRNA expression by QPCR in normal human mammary epithelial (HMEC) and MDA-MB-231 breast cancer cells, which is inhibited by TGF-β receptor I kinase inhibitor SB431542 (SB). FIG. 1B. Relative expression of TMEPAI protein in HMEC and MDA-MB-231 cells without or with TGF-β stimulation.
(§2) TMEPAI Expression in Normal Mammary Epithelial Cells Vs Breast Cancer Cells. […] The inventors tested the expression of TMEPAI in various breast cancer lines by immunoblotting. […] Moreover, TMEPAI is also expressed by aggressive HER2-positive breast cancer cells that either coexpress estrogen receptor (BT-474) or not (SK-BR-3) (FIG. 2).

[2] = test system: normal mammary epithelial cells MCF-10A; experiment: Growth of normal mammary epithelial MCF-10A cells with celastrol; format: cell-based; details: 1 μM
Excerpt: FIGS. 10A-D: Celastrol is novel inhibitor of TMEPAI expression and cancer cell growth by enhancing growth suppressive TGF-β signaling. FIG. 10A. […] FIG. 10B. Celastrol had no effect on the growth of normal mammary epithelial cells MCF-10A. FIG. 10C. Celastrol inhibited non-Smad signaling (left panel) and enhanced Smad signaling (right panel) by inhibiting TMEPAI expression. FIG. 10D. Celastrol enhanced Smad signaling as measured by 12XCAGA-Luciferase reporter assay.
Terpinoid Derivative Celastrol Blocked TMEPAI Expression and Reversed TMEPAI Mediated Effects. The inventors identified tripterine (celastrol), a triterpinoid, having the ability to block TGF-β induced TMEPAI expression after screening several terpinoid derivatives with reactive α,β-unsaturated ketones in their structure. […] Only a mild decrease in the proliferation of normal MCF-10A cells was observed even at a 10-fold higher dose of celastrol (not shown). […] Equally, celastrol inhibited non-Smad signaling (FIG. 10C, left panel). The enhancement of Smad signaling is also confirmed by increased 12XCAGA-luciferase reporter activity (FIG. 10D).

MDA-MB-231 tumors = experiment: Subcutaneous MDA-MB-231 tumors in athymic mice treated with celastrol; format: in vivo; details: 2 mg/kg, 3 times a week for 4 weeks
Method: (§3) FIG. 11A. athymic mice bearing subcutaneous MDA-MB-231 tumors that were treated for 3 times a week for 4 consecutive weeks with 2 mg/kg celastrol or vehicle alone. FIG. 11B. Tumor weights following celastrol treatment, P<0.001. […] FIG. 11C. […] Toxicity of celastrol administered was monitored by measuring total body weight.
(§4) Pharmacological Inhibition of TMEPAI Expression Reduces Tumor Growth In Vivo. […] Compared to vehicle-treatment, celastrol treatment led to a ˜6-fold reduction in tumor burden (FIG. 11B). […] Thus, these preclinical studies confirm that TMEPAI expressing breast cancers thrive by suppressing tumor suppressive TGF-β signaling and are therefore susceptible to pharmacological inhibition of TMEPAI expression by celastrol.

[3] = Total body weight of tumor-bearing mice treated with celastrol (toxicity); format: in vivo; details: 2 mg/kg
Method: as §3, §4

[4] = Body weights of xenograft-bearing nude mice treated with CLST-NP or CLST (toxicity); format: in vivo; details: doses administered: 0.2 mg/kg CLST-NP, 2 mg/Kg CLST
Method: (FIG. 12A) Representative pictures of tumors excised from nude mice that harbored xenografts of human breast cancer cells (MDA-MB-231). (Veh-NP) 2 mg/kg drug-free liposomes, 0.2 mg/kg celastrol containing liposomes (CLST-NP) or 2 mg/Kg celastrol alone (CLST) were administered by intraperitoneal injection every alternate day for first week and every 2 day interval for following week for a total of two weeks period. (FIG. 12B) Tumor weights were shown *p<0.01 versus Vehicle control group. (FIG. 12C) Tumor volumes measured before sacrificing the animals. * p<0.01 versus Vehicle control group. (FIG. 12D) Similarities in body weights of animals treated with vehicle or drugs indicate non-toxicity of CLST-NP and CLST at the doses administered.
Similarities in body weights of animals treated with vehicle or drugs indicate non-toxicity of CLST-NP and CLST at the doses administered.

[5] = cited from earlier work
TMEPAI [6] = experiment: TMEPAI RNA and protein expression in normal human mammary epithelial cells (HMEC) with TGF-β; format: cell-based; details: in response to TGF-β
Excerpt: as §1, §2

[7] = MDA-MB-231 cells, within 6 h of treatment

Molecule: NC(=O)c1ccc(-c2nc(-c3ccc4c(c3)OCO4)c(-c3ccccn3)[nH]2)cc1 [SB431542]
- effect of TGF-β on TMEPAI mRNA expression by QPCR in presence of inhibitor (TMEPAI [1]; HMEC and MDA-MB-231 cells): inhibited

Molecule: CC1=C(O)C(=O)C=C2C1=CC=C1[C@@]2(C)CC[C@@]2(C)[C@@H]3C[C@](C)(C(=O)O)CC[C@]3(C)CC[C@]12C [celastrol]
- growth of normal MCF-10A cells [2]: no effect
- reduction in tumor burden compared to vehicle-treatment (tumor weights) (MDA-MB-231 tumors): ~6 fold
- luminescence signal in the tumors (MDA-MB-231 tumors; MDA-MB-231 cells expressing GFP-luciferase): 500-2500 RLU
- total body weights of mice versus vehicle [3]: remained the same
- toxic effects at the dose given to mice [3]: no toxic effects
- toxicity judged from body weights similar to vehicle [4]: non-toxicity
- aqueous solubility [5]: low

Molecule: TGF-β
- induction of TMEPAI mRNA (TMEPAI [1]; [7]): > 40 fold
- induction of TMEPAI proteins (TMEPAI [1]; [7]): ~9 fold
- induction of TMEPAI RNA and proteins (TMEPAI [6]): poorly induced
